Source: the Deep4Chem optical property database
Several values for one entry are separate records, joined by “and”; a condition that tells them apart may be missing. Equal entries are not always repeated. One block for each compound: values may come before it.

Test: solvent given as SMILES

Structure (SMILES): CCCCCCCCCCCCCCCCCC(=O)Oc1cc2[nH]c(cc2CCOC)c2nc(ccc3[nH]c(cc3CCOC)c3nc1C(CCOC)=C3)C(CCOC)=C2
- absorption maximum (in Cc1ccccc1): 646 nm

Structure (SMILES): CC(C)(C(=O)c1ccc(N2c3ccccc3Oc3ccccc32)cc1)C(=O)c1ccc(N2c3ccccc3Oc3ccccc32)cc1
- absorption maximum (in Cc1ccccc1): 416 nm

Structure (SMILES): O=C1c2ccccc2-c2ccc(N3CCN(c4ccccc4)CC3)c3cccc1c23
- absorption maximum (in C1CCCCC1): 423 nm
- absorption maximum (in C1CCOC1): 438 nm
- absorption maximum (in C1COCCO1): 436.2 nm
- absorption maximum (in CC1COC(=O)O1): 445.6 nm
- absorption maximum (in CC#N): 444 nm
- absorption maximum (in CC(C)=O): 441.2 nm
- absorption maximum (in CCCCCCCCO): 445 nm
- absorption maximum (in CCCCCO): 446 nm
- absorption maximum (in CCCCO): 444 nm
- absorption maximum (in CCCO): 445 nm
- absorption maximum (in CCO): 446.8 nm
- absorption maximum (in CCOC(C)=O): 436 nm
- absorption maximum (in CN(C)C=O): 447.2 nm
- absorption maximum (in CO): 445 nm
- absorption maximum (in CS(C)=O): 452 nm
- absorption maximum (in Cc1ccccc1): 435.8 nm
- absorption maximum (in ClC(Cl)Cl): 443 nm

Structure (SMILES): COc1ccc(-n2nc(C(=O)c3ccc(Cl)cc3)c(N3CCCC3)n2)cc1
- absorption maximum (in CC#N): 381 nm

Structure (SMILES): Clc1cnc2nn3ccccc3c2c1
- absorption maximum (in C1CCOC1): 373 nm

Structure (SMILES): CCOC(=O)c1c2c3c(ccc(OC)c3c3cc4c(cc13)[Si](C)(C)O[Si]4(C)C)N(C)C2=O
- absorption maximum (in CC#N): 378 nm

Structure (SMILES): COc1ccc(C2=C(c3ccc(OC)cc3)C(c3ccc(OC)cc3)=[N+]3C2=C(c2ccc(OC)cc2)c2c(-c4ccc(OC)cc4)c(-c4ccc(OC)cc4)c(-c4ccc(OC)cc4)n2[B-]3(F)F)cc1
- absorption maximum (in C1CCOC1): 597 nm

Structure (SMILES): Cc1ccc(-c2nc3c([nH]2)C2=CC(=O)S[C@]2(C)[C@@]2(C)SC(=O)C=C32)cc1
- absorption maximum (in CC#N): 455 nm

Structure (SMILES): O=C(O)CCCCCn1c2ccc(Br)cc2c(=O)c2cc3c(cc21)c(=O)c1cc(Br)ccc1n3CCCCCC(=O)O
- absorption maximum (in CO): 533 nm

Structure (SMILES): COc1cccc2cc(-c3cc4cccc(OC)c4oc3=O)oc12
- absorption maximum (in CC#N): 352 nm
- absorption maximum (in CCOC(C)=O): 351 nm
- absorption maximum (in CS(C)=O): 359 nm
- absorption maximum (in Cc1ccccc1): 358 nm
- absorption maximum (in O): 363 nm

Structure (SMILES): CC1(C)C(/C=C/C=C/C=C/C=C2/N(c3ccc(S(=O)(=O)[O-])cc3)c3ccc(S(=O)(=O)[O-])cc3C2(C)C)=[N+](c2ccc(S(=O)(=O)[O-])cc2)c2ccc(S(=O)(=O)[O-])cc21
- absorption maximum (in CO): 759 nm
- absorption maximum (in O): 754 nm

Structure (SMILES): CCCCCCc1cc2/c(=C(\C#N)C(=O)OC)s/c(=c3/s/c(=C(/C#N)C(=O)OC)c4cc(CCCCCC)sc34)c2s1
- absorption maximum (in Cc1ccccc1): 580 nm

Structure (SMILES): CCCCC(CC)Cn1c2cc(C#N)ccc2c2ccc(C#Cc3ccc4ccc5c(C#Cc6ccc7c8ccc(C#N)cc8n(CC(CC)CCCC)c7c6)cc(C#Cc6ccc7c8ccc(C#N)cc8n(CC(CC)CCCC)c7c6)c6ccc3c4c56)cc21 (centres undefined)
- absorption maximum (in ClCCl): 447 nm

Structure (SMILES): CCCCCCCCN1c2ccc(C#Cc3ccc(F)cc3)cc2Sc2cc(C=O)ccc21
- absorption maximum (in C1CCOC1): 378 nm
- absorption maximum (in CC#N): 380.01 nm
- absorption maximum (in CCCCCC): 376 nm
- absorption maximum (in CO): 350 nm
- absorption maximum (in CS(C)=O): 388 nm
- absorption maximum (in Cc1ccccc1): 381.99 nm
- absorption maximum (in ClC(Cl)Cl): 391.99 nm

Structure (SMILES): Oc1ccc(/N=C/c2ccccc2Oc2ccccc2)cc1
- absorption maximum (in C1CCCCC1): 348 nm
- absorption maximum (in C1COCCO1): 341 nm
- absorption maximum (in CC#N): 350 nm
- absorption maximum (in CC(C)=O): 342 nm
- absorption maximum (in CC(C)CO): 344 nm
- absorption maximum (in CC(C)O): 344 nm
- absorption maximum (in CCCCC): 341 nm
- absorption maximum (in CCCCCC): 346 nm
- absorption maximum (in CCCCO): 346 nm
- absorption maximum (in CCCCOC(C)=O): 346 nm
- absorption maximum (in CCCO): 345 nm
- absorption maximum (in CCOC(C)=O): 340 nm
- absorption maximum (in CCOCC): 345 nm
- absorption maximum (in CN(C)C=O): 345 nm
- absorption maximum (in CO): 342 nm
- absorption maximum (in CS(C)=O): 348 nm
- absorption maximum (in Cc1ccccc1): 342 nm
- absorption maximum (in Cc1ccccc1C): 382 nm
- absorption maximum (in ClC(Cl)Cl): 343 nm
- absorption maximum (in N#Cc1ccccc1): 341 nm
- absorption maximum (in c1ccccc1): 345 nm

Structure (SMILES): CCCC1=Cc2nc1ccc1[nH]c(cc1CCC)c1nc(c(NC(=O)CCCC(=O)O)cc3[nH]c2cc3CCC)C(CCC)=C1
- absorption maximum (in ClCCl): 636 nm

Structure (SMILES): c1ccc2cc(-n3c4ccccc4c4ccccc43)ccc2c1
- absorption maximum (in C1CCCCC1): 318 nm
- absorption maximum (in C1CCOC1): 320 nm
- absorption maximum (in CC#N): 321 nm
- absorption maximum (in CCO): 320 nm
- absorption maximum (in CCOC(C)=O): 318 nm
- absorption maximum (in CCOCC): 319 nm
- absorption maximum (in CO): 319 nm
- absorption maximum (in Cc1ccccc1): 319 nm
- absorption maximum (in ClC(Cl)Cl): 321 nm

Structure (SMILES): c1ccc(-c2nn(-c3ccccc3)c3nc4ccccc4cc23)cc1
- absorption maximum (in C1CCCCC1): 401.45 nm
- absorption maximum (in C1CCOC1): 398.57 nm
- absorption maximum (in CC#N): 396.83 nm
- absorption maximum (in CC(C)=O): 396.04 nm
- absorption maximum (in CCCCCl): 398.72 nm
- absorption maximum (in CCCCOCCCC): 398.57 nm
- absorption maximum (in CN(C)C=O): 397.93 nm

Structure (SMILES): Cc1ccc(C)n1-c1cccc(C#N)c1
- absorption maximum (in ClCCl): 259 nm

Structure (SMILES): Nc1ccc2c(C(F)(F)F)cc(=O)oc2c1
- absorption maximum (in C1CCC2CCCCC2C1): 349 nm
- absorption maximum (in C1CCCCC1): 348 nm
- absorption maximum (in C1COCCO1): 364 nm
- absorption maximum (in CC1CCCCC1): 348 nm
- absorption maximum (in CC#N): 365 nm and 367 nm
- absorption maximum (in CC(C)=O): 371 nm
- absorption maximum (in CC(C)O): 384 nm
- absorption maximum (in CCC(C)CC): 347 nm
- absorption maximum (in CCCC(C)C): 347 nm
- absorption maximum (in CCCCCC): 347 nm
- absorption maximum (in CCCCCCCCO): 383 nm
- absorption maximum (in CCCCCCO): 384 nm
- absorption maximum (in CCCCO): 383 nm
- absorption maximum (in CCO): 383 nm
- absorption maximum (in CCOC(C)=O): 368 nm
- absorption maximum (in CN(C)C=O): 378 nm
- absorption maximum (in CO): 378 nm
- absorption maximum (in CS(C)=O): 386 nm

Structure (SMILES): CNc1cc2nc3cc(Cl)c(Cl)cc3nc2cc1NC
- absorption maximum (in CCO): 442 nm

Structure (SMILES): CCCCOc1c(C#N)cc2cc(C#N)c(OCCCC)c3c4c(OCCCC)c(C#N)cc5cc(C#N)c(OCCCC)c(c1c23)c54
- absorption maximum (in ClCCl): 454 nm

Structure (SMILES): COc1ccc(/C=C/C=C/C2=NC3C(=O)NC(N)=NC3N2[C@H]2C[C@H](O)[C@@H](CO)O2)cc1 (some centres undefined)
- absorption maximum (in C1COCCO1): 354 nm
- absorption maximum (in CC#N): 352 nm
- absorption maximum (in CO): 342 nm

Now from value to compound:

- absorption maximum (in CO): 640 nm
Structure (SMILES): C#CCOc1ccc(/C=C/C2=[N+]3C(=C(c4ccc(N(CC)CC)cc4)c4c(C)cc(/C=C/c5ccc(OCC(=O)OC)cc5)n4[B-]3(F)F)C(C)=C2)cc1

- absorption maximum (in C1CCCCC1): 386 nm
- absorption maximum (in C1CCOC1): 386 nm
- absorption maximum (in C1COCCO1): 387 nm
- absorption maximum (in CC#N): 386 nm
- absorption maximum (in CCO): 385 nm
- absorption maximum (in CN(C)C=O): 388 nm
- absorption maximum (in CO): 384 nm
- absorption maximum (in COCCOC): 386 nm
- absorption maximum (in CS(C)=O): 390 nm
- absorption maximum (in O): 385 nm
- absorption maximum (in OCC(O)CO): 393 nm
- absorption maximum (in OCCO): 388 nm
Structure (SMILES): CN(C)c1c2ccccc2cc2ccccc12

- absorption maximum (in ClC(Cl)Cl): 460 nm
Structure (SMILES): CCn1c2ccccc2sc2c(C#N)c3oc4ccccc4oc3c(C#N)c21

- absorption maximum (in ClCCl): 330 nm
Structure (SMILES): C(#Cc1ncc(-c2ccccc2)o1)c1cccnc1

- absorption maximum (in CO): 797 nm
Structure (SMILES): CC1(C)C(/C=C/C2=C(c3ccc(C(=O)O)cc3)C(=C/C=C3/N(CCCCS(=O)(=O)[O-])c4ccccc4C3(C)C)/CC2)=[N+](CCCCS(=O)(=O)[O-])c2ccccc21

- absorption maximum (in ClCCl): 433 nm
Structure (SMILES): N#Cc1cc(/C=C/c2ccc(N(c3ccccc3)c3ccccc3)cc2)ccc1/C=C/c1ccc(/C=C/c2ccc(N(c3ccccc3)c3ccccc3)cc2)cc1

- absorption maximum (in CN(C)C=O): 351 nm
Structure (SMILES): Cc1ccc2[nH]c(-c3ccc(-c4ccc(-c5ccc(-c6nc7cc(C)ccc7[nH]6)cc5)cc4)cc3)nc2c1

- absorption maximum (in ClC(Cl)Cl): 408 nm
Structure (SMILES): COc1ccc(-c2oc3cccc4c5c(-c6ccc(OC)cc6)c(=N)oc6cccc(c2c34)c65)cc1

- absorption maximum (in ClC(Cl)Cl): 419 nm
Structure (SMILES): CCn1c2ccccc2c2cc3c(cc21)c1ccccc1n3CC

- absorption maximum (in ClC(Cl)Cl): 420 nm
Structure (SMILES): C(#Cc1ccncc1)C(C#Cc1ccncc1)=Cc1ccc(C=C(C#Cc2ccncc2)C#Cc2ccncc2)cc1

- absorption maximum (in CC#N): 424 nm
Structure (SMILES): COc1ccc(C2=[O+][B-](F)(F)OC(c3ccc4c(c3)Cc3ccccc3-4)=C2)cc1

- absorption maximum (in C1CCOC1): 738 nm
Structure (SMILES): COc1ccccc1C1=[N+]2C(=Cc3c4cc5ccccc5cc4c(-c4ccccc4OC)n3[B-]2(F)F)c2cc3ccccc3cc21

- absorption maximum (in ClCCl): 376 nm
Structure (SMILES): COc1ccc(-c2c3ccccc3c(-c3ccc(OC)cc3)c3ccccc23)cc1

- absorption maximum (in ClCCl): 534 nm
Structure (SMILES): CC1=C(I)C(C)=[N+]2C1=C(c1c(-c3ccccn3)nc3ccccn13)c1c(C)cc(C)n1[B-]2(F)F

- absorption maximum (in ClCCl): 373 nm
Structure (SMILES): COC(=O)[C@H](Cc1ccccc1)Nc1c(C(C)=O)c(=O)oc2cc(N(C)C)ccc12

- absorption maximum (in ClC(Cl)Cl): 485 nm
Structure (SMILES): N#Cc1nc(N(Cc2ccccc2Cl)Cc2ccccc2Cl)c(C#N)nc1N(Cc1ccccc1Cl)Cc1ccccc1Cl

- absorption maximum (in ClCCl): 406 nm
Structure (SMILES): C1=Cc2ccc(N(c3ccccc3)c3ccccc3)cc2C2(c3cc(N(c4ccccc4)c4ccccc4)ccc31)c1ccccc1-c1ccccc12

- absorption maximum (in CC#N): 421 nm
Structure (SMILES): c1ccc(C[n+]2cc3ccc4c[n+](Cc5ccccc5)cc5ccc(c2)c3c45)cc1

- absorption maximum (in CC#N): 479 nm
- absorption maximum (in CCCCCC): 523 nm
- absorption maximum (in CCOC(C)=O): 497 nm
- absorption maximum (in CO): 488 nm
- absorption maximum (in ClCCl): 505 nm
Structure (SMILES): F[B-]1(F)n2c(Cl)ccc2C(c2c(Cl)cccc2Cl)=C2C=CC(NCc3ccccc3)=[N+]21

- absorption maximum (in CC#N): 403 nm
- absorption maximum (in CN(C)C=O): 416 nm
- absorption maximum (in ClCCl): 447 nm
Structure (SMILES): CCN(CC)c1ccc(/C=N/c2cc3ccccc3cc2/N=C/c2ccc(N(CC)CC)cc2O)c(O)c1

- absorption maximum (in ClC(Cl)Cl): 455 nm
Structure (SMILES): COc1cc(C=C(C#Cc2ccccc2)C#Cc2ccccc2)c(OC)cc1C=C(C#Cc1ccccc1)C#Cc1ccccc1

- absorption maximum (in ClC(Cl)Cl): 363 nm
Structure (SMILES): CCCCCCN1C(=O)c2cccc3c(-c4ccc([N+](=O)[O-])s4)ccc(c23)C1=O

- absorption maximum (in C1CCOC1): 342 nm
- absorption maximum (in ClCCl): 342 nm
Structure (SMILES): Cc1ccc(-c2ccc3ccc4cc(C(C)(C)C)cc5ccc2c3c45)cc1
